From patent publication EP4778933A1 (Chengdu Hyperway Pharmaceuticals Co., Ltd., priority 2023, dated 2025) come the findings set out here.

Each structure is given as a SMILES string. Like-named read-outs stand apart in the source and are kept apart here.

Series [1] relates to human ovarian cancer RKN mouse xenograft tumors. Briefly: In vivo drug efficacy, RKN subcutaneous xenograft tumor model. The settings on record: 50 mg/kg, PO. Details: species or system Balb/c nude mice. As to the method:
A subcutaneous xenograft tumor model of human ovarian cancer RKN (derived from uterine leiomyosarcoma) cells was established in Balb/c nude mice. RKN tumor cells resuspended in Ham's F12 medium were inoculated subcutaneously on the right side of the experimental animals at 5×10^6 + gel/0.1 mL. When the tumor grew to about 150-200 mm^3, 20 animals having relatively uniform tumor volumes were selected for group administration, with a total of 4 groups, 5 animals in each group. On the day of the experiment, the animals were given the corresponding drugs according to the groups. The first group G1 was set as a solvent group, and 50 mM citrate buffer (pH 5.0) + 10% Captisol was given by gavage alone. The second group G2 was given a 50 mM citrate buffer (pH 5.0) + 10% Captisol of compound 21. The third group G3 was given a 50 mM citrate buffer (pH 5.0) + 10% Captisol of compound 26. The fourth group G4 was given a 50mM citrate buffer (pH 5.0) + 10% Captisol of compound 31. Table 7: Study on effect of test substances on animal tumor size in the human ovarian cancer RKN mouse xenograft tumor model
During the experiment, the body weight and tumor size of the animals were measured twice a week, and the clinical symptoms of the animals were observed and recorded every day. Each drug administration was based on the most recent weighing of the animals.
The tumor was measured with a digital vernier caliper to measure the length (a) and width (b). The tumor volume (TV) was calculated using the following formula: TV = a × b^2 /2. [formula]

The test system of series [2] is KRAS G12D-mediated ERK phosphorylation. Briefly: Inhibition of KRAS G12D-mediated ERK phosphorylation in AGS cells (in-cell pERK/GAPDH immunofluorescence). In kind it is cell-based. The note with it: AGS cells, 3 h incubation, read-out: Inhibitory activity on ERK phosphorylation (IC50) AGS-G12D. As to the method: (§1) Day 1: AGS cells, SW480 cells, NCI H358 cells, HCT116 cells, and KP2 cells were seeded into 384-well cell culture plates and cultured overnight in a 37°C, 5% CO2 incubator.
(§2) Day 2: The compounds were added to the plates using Echo550 and incubated for 3 h in a 37°C, 5% CO2 incubator. Then, cells fixed with paraformaldehyde, permeated with methanol and blocked with a blocking solution were added. Finally, a mixed solution of primary antibodies (rabbit anti pERK, mouse anti GAPDH) was added, and the mixture was incubated overnight at 4°C.
(§3) Day 3: The mixed solution of primary antibodies was discarded, and a mixed solution of secondary antibodies (goat anti rabbit 800 CW, goat anti mouse 680 RD) was added. The resulting mixture was incubated at room temperature in the dark. Finally, the cell culture plate was washed with PBST, and then inverted for 1 minute of centrifugation. The fluorescence signal values were read with Odyssey CLx.
(§4) ERK phosphorylation was calculated according to the following formula: [formula] • Negative control: DMSO • Positive control: 10 µM Reference • IC50 value was fitted and calculated by XLFit 5.0 using the parametric formula. • Y = Bottom+(Top-Bottom)/(1+10^((LogIC50-X)*HillSlope)) • X: log value of compound concentration. • Y: average value of relative expression of p-ERK between replicate wells.

Series [3] is described as follows: In vivo pharmacokinetic test in rats. Also noted: species or system SD Rats. The settings on record: Sprague-Dawley (SD), rat; male rats, oral, single dose 30 mg/kg, plasma. As for the experimental part:
(§5) Each test compound was administered orally once to male […] rats for pharmacokinetic study. The test compounds were prepared on the day of administration. The intravenous administration solvent: 5% DMSO + 10% solutol + 85% saline; and the oral administration solvent: 50 mM sodium citrate (pH 5.0) + 10% captisol. The oral administration was conducted in a dose of 30 mg/kg. The animals were fasted for 10-14 h before oral administration, and the feeding was resumed 4 h after administration. Pharmacokinetic samples were collected through the orbit. The collection time points were: 5 min (intravenous administration), 15 min, 30 min, 1 h, 2 h, 4 h, 6 h, 8 h and 24 h after administration. Three whole blood samples were collected at each time point, with a collection volume of about 0.2 mL, and anticoagulated with sodium heparin. After blood samples were collected, they were immediately placed on ice and centrifuged within 1 h to isolate plasma (centrifugation conditions: 8000 rpm, 1 min, 2-8°C). The collected plasma was stored in a -20°C refrigerator before analysis. The concentrations of compounds in the plasma samples were determined using an LC-MS/MS analysis method. Table 4: Pharmacokinetic test results of some compounds in SD Rats

Series [4] deals with KRAS G12C-mediated ERK phosphorylation. Briefly: Inhibition of KRAS G12C-mediated ERK phosphorylation in NCI H358 cells. The class given is cell-based. The settings on record: Homo sapiens, 3 h incubation, read-out: Inhibitory activity on ERK phosphorylation (IC50) NCI H358-G12C. As for the experimental part:
as §1, §2, §3, §4

The test system of another series is GP2D (KRASG12D). Briefly: 3D cell proliferation inhibition test (CellTiter-Glo 3D, 7 days), GP2D. The class given is cell-based. The note with it: 168 h, read-out: Inhibitory activity on cell proliferation (IC50) GP2D (KRASG12D). As to the method:
(§6) The diluted compounds to be tested were added to 384-well low-adhesion KRAS mutant types (such as GP2D, NCI H358, LoVo, RKN and KP2) of cell culture plates by using a nanoliter pipetting system (LABCYTE, P-0200). Then, the cells were plated and incubated in a 37°C, 5% CO2 incubator for 7 days. Afterward, CellTiter-Glo® 3D reagent was added, and the luminescent values were read by an Envision multifunctional microplate reader (the luminescent signal is proportional to the amount of ATP in the system, and the ATP content directly represents the number of viable cells in the system). Finally, the IC50 values (half-maximal inhibitory concentration) of the compounds were obtained by the XLFIT software using the nonlinear fitting formula.
(§7) • a) The diluted compounds to be tested were added to 384-well low-adhesion KRAS mutant types of cell culture plates by using a nanoliter pipetting system. • b) Cells were seeded into the 384-well plates in a) and then centrifuged at 1000 rpm for 1 min at room temperature, with a final DMSO concentration of compound being 0.5%. The plates were then incubated in a 5% CO2 constant-temperature incubator at 37°C for 7 days. • c) CellTiter-Glo® 3D was added to the 384-well cell culture plates in b), shaken in the dark, and incubated at room temperature. • d) The luminescence values were read by using an Envision multifunctional microplate reader.
(§8) The IC50 (half-maximal inhibitory concentration) values of the compounds were obtained by using XLFIT software according to the following nonlinear fitting formula: Y = Bottom + (Top−Bottom)/(1+10^(∧)((LogIC50−X)×HillSlope)) [formula] • X: log value of compound concentration. • Y: inhibition rate (%) [formula] • Negative control: DMSO. • Positive control: Medium only.
(In general: Cellular ATP, detected with luciferase, serves as a proxy for viable cell number.)

A short description of series [5]: In vivo pharmacokinetic test in mice. The settings on record: female BALB/c mice, oral, single dose 30 mg/kg, plasma. As for the experimental part:
as §5, with “female” for “male”, “mice” for “rats”, “The” for “The intravenous administration solvent: 5% DMSO + 10% solutol + 85% saline; and the”, “were:” for “were: 5 min (intravenous administration),”, “method.” for “method. Table 4: Pharmacokinetic test results of some compounds in SD Rats”

The test system of series [6] is KRAS G13D-mediated ERK phosphorylation. Briefly: Inhibition of KRAS G13D-mediated ERK phosphorylation in HCT116 cells. The class given is cell-based. The note with it: Homo sapiens, HCT-116, 3 h incubation, read-out: Inhibitory activity on ERK phosphorylation (IC50) HCT116-G13D. As for the experimental part:
as §1, §2, §3, §4

The test system of another series is RKN (KRAS G12V). Briefly: 3D cell proliferation inhibition test (CellTiter-Glo 3D, 7 days), RKN. In kind it is cell-based. The settings on record: 168 h, read-out: Inhibitory activity on cell proliferation (IC50) RKN (KRAS G12V). As for the experimental part:
as §6, §7, §8

The test system of series [7] is KRAS G12V-mediated ERK phosphorylation. Briefly: Inhibition of KRAS G12V-mediated ERK phosphorylation in SW480 cells. In kind it is cell-based. The settings on record: 3 h incubation, read-out: Inhibitory activity on ERK phosphorylation (IC50) SW480-G12V. As for the experimental part:
as §1, §2, §3, §4

In series [8] the test system is KRAS G12R-mediated ERK phosphorylation. Description: Inhibition of KRAS G12R-mediated ERK phosphorylation in KP2 cells. In kind it is cell-based. The settings on record: 3 h incubation, read-out: Inhibitory activity on ERK phosphorylation (IC50) KP2-G12R. As for the experimental part: as §1, §2, §3, §4

In general, AUC refers to concentration integrated over time. One may read the Cmax as the highest concentration seen after dosing. Regarding `CC1(O)COCCN(c2nc(OCC34CCCN3C(c3cc(F)c(F)c(F)c3)CC4)nc3c(F)c(-c4cccc5sc(N)c(C#N)c45)c(Cl)cc23)C1` (single isomer, unassigned) [Example 21, 2-amino-4-[6-chloro-8-fluoro-4-(6-hydroxy-6-methyl-1,4-oxazepan-4-yl)-2-({[3-(3,4,5-trifluorophenyl)-2,3,5,6,7,7a-hexahydro-1H-pyrrolizin-7a-yl]methyl}oxy)quinazolin-7-yl]benzo[b]thiophene-3-carbonitrile], in series [1] (BID, 28 days), the “inhibitory effects on human ovarian cancer RKN mouse xenograft tumors” value is “significant inhibitory effects”. Moreover, the “Tumor volume inhibition rate (TGI)” value in [1] (RKN xenograft, BID × 28, day 28) stood at 109%. Also, the IC50 in series [2] was 4.7 nM; in [4], 2.04 nM; in the series with GP2D (KRASG12D), 4.26 nM; in [6], 45 nM; in the series on RKN (KRAS G12V), 7.23 nM; in [7] (Homo sapiens, SW480, 3 h) it was 7.8 nM. Besides, the IC50 in [8] amounted to 146 nM. Besides, the figures for the AUC in series [3] and in [5] (30 mg/kg) were 5290 ng·h/mL and 30872 ng·h/mL, respectively. Also, the Cmax in [3] stood at 866 ng/mL; in [5] (30 mg/kg) it was 5218 ng/mL.

Take `CC1(O)COCCN(c2nc(OCC34CCCN3C(c3cc(F)c(F)c(F)c3)CC4)nc3c(F)c(-c4ccc(F)c5sc(N)c(C#N)c45)c(Cl)cc23)C1` (single isomer, unassigned) [Example 12, 2-amino-4-[6-chloro-8-fluoro-4-(6-hydroxy-6-methyl-1,4-oxazepan-4-yl)-2-({[3-(3,4,5-trifluorophenyl)-2,3,5,6,7,7a-hexahydro-1H-pyrrolizin-7a-yl]methyl}oxy)quinazolin-7-yl]-7-fluorobenzo[b]thiophene-3-carbonitrile]: the IC50 in [2] turned out to be 3.3 nM; in series [4], 3.1 nM; in series [6], 63 nM; in [7] it was 2.4 nM; in series [8] it was 148 nM. The compound also registered an AUC in series [5] (30 mg/kg) of 37427 ng·h/mL. In addition, the Cmax in series [5] (30 mg/kg) was found to be 5544 ng/mL.

On to `CC1(O)COCCN(c2nc(OCC34CCCN3C(c3cc(F)c(F)c(F)c3)CC4)nc3c(F)c(-c4cccc5sc(N)c(C#N)c45)c(Br)cc23)C1` (centres unmarked) [Example 23, 2-amino-4-[6-bromo-8-fluoro-4-(6-hydroxy-6-methyl-1,4-oxazepan-4-yl)-2-({[3-(3,4,5-trifluoropheny 1)-2,3,5,6,7,7a-hexahydro-1H-pyrrolizin-7a-yl]methyl}oxy)quinazolin-7-yl]benzo[b]thiophene-3-carb onitrile], for which the IC50 stood at 4.2 nM in series [2] (Homo sapiens, AGS, 3 h); 4.9 nM in series [4]; 94 nM in series [6]; 663 nM in series [8]. In addition, the AUC in series [5] (mouse, read-out: AUC) came out at 9230 ng·h/mL. Moreover, in series [5] (mouse, read-out: Cmax), the peak concentration (Cmax) worked out at 3620 ng/mL.
